Where two headings read alike, the source gives them in different places.
How the values were obtained:
[1] = biological target: T1, EGFR wild type (Homo sapiens, UniProt P00533); assay: Inhibition of EGFR wild type biochemical enzymatic activity (HTRF); conditions: EGFR wild type, 1 mM ATP, 1 h at room temperature, read-out: IC50 @WT
T1 construct: purchased Carna Bio
How it was run: (§1)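 Compounds at varying concentrations were tested against each EGFR form using 1 mM ATP and 1 μM TK Substrate-biotin. Reactions ran 1 h at room temperature in Mg2+/Mn2+ buffer with CHAPS, DTT and 0.5% DMSO. Time-resolved fluorescence gave IC50 by four-parameter fit.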

[2] = biological target: T2, EGFR L858R (Homo sapiens, UniProt P00533, L858R); assay: Inhibition of EGFR L858R biochemical enzymatic activity (HTRF); conditions: 1 mM ATP, 1 h at room temperature, read-out: IC50 @L858R
T2 construct: purchased Carna Bio
T2 sequence (P00533 25-1210 L858R): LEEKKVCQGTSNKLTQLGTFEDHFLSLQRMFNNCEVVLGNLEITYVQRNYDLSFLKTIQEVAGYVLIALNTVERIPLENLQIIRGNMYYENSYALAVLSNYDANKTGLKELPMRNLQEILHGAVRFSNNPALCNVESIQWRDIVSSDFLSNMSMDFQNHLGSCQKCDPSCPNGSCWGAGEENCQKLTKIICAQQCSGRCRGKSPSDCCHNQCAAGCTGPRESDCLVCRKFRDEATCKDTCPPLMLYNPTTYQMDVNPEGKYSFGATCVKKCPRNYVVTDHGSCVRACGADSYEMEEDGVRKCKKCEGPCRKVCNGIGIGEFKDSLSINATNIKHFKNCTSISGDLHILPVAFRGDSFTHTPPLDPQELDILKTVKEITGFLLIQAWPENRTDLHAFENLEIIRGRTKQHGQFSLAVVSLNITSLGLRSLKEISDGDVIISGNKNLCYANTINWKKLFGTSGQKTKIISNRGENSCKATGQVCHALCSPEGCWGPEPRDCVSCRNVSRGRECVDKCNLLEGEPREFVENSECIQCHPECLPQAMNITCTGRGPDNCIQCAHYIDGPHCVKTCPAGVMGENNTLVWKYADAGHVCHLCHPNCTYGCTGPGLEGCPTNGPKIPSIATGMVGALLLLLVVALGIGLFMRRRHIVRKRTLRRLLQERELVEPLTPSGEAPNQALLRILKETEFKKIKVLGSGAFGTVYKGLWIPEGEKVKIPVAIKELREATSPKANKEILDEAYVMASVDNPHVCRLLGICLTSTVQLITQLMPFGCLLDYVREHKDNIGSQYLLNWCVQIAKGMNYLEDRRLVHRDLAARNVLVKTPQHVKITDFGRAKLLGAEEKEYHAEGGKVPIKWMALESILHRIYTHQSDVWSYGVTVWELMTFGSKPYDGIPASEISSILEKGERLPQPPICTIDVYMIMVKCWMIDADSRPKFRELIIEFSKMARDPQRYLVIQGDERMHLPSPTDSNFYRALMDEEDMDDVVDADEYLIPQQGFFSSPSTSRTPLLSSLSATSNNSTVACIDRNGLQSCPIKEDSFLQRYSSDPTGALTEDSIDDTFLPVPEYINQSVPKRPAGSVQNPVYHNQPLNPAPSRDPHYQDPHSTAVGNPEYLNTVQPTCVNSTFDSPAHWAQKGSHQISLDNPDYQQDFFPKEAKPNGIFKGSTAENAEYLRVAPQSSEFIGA
How it was run: as §1

[3] = biological target: T3, EGFR L858R/T790M (Homo sapiens, UniProt P00533, L858R/T790M); assay: Inhibition of EGFR L858R/T790M biochemical enzymatic activity (HTRF); conditions: EGFR L858R/T790M, 1 mM ATP, 1 h at room temperature, read-out: IC50 @L858R-T790M
T3 construct: purchased Carna Bio
How it was run: as §1

[4] = biological target: T4, EGFR Exon19Del (Homo sapiens, UniProt P00533, DEL746-750); assay: Inhibition of EGFR Exon19Del biochemical enzymatic activity (HTRF); conditions: EGFR Exon19Del, 1 mM ATP, 1 h at room temperature, read-out: IC50 @Del19
T4 construct: purchased Carna Bio
T4 sequence (P00533 with tags, fused parts or gaps DEL746-750 limits assumed): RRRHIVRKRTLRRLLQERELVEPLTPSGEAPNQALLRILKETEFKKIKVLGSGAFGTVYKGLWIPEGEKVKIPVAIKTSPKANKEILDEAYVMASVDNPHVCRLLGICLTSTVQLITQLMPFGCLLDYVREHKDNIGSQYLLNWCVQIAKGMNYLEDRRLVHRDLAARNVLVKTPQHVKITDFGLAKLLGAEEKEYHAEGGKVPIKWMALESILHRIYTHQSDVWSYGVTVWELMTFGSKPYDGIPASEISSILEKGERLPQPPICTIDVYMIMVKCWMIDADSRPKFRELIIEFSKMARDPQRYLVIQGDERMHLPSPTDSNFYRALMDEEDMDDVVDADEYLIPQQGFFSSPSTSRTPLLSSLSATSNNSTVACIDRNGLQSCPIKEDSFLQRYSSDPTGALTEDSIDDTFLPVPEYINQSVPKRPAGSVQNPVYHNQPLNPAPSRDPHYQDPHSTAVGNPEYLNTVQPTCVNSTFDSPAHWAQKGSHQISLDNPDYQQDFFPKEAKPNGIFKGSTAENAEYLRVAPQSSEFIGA
How it was run: as §1

[5] = biological target: T5, EGFR Exon19Del/T790M (Homo sapiens, UniProt P00533, DEL746-750/T790M); assay: Inhibition of EGFR Exon19Del/T790M biochemical enzymatic activity (HTRF); conditions: EGFR Exon19Del/T790M, 1 mM ATP, 1 h at room temperature, read-out: IC50 @Del19-T790M
T5 construct: purchased Carna Bio
T5 sequence (P00533 with tags, fused parts or gaps DEL746-750/T790M limits assumed): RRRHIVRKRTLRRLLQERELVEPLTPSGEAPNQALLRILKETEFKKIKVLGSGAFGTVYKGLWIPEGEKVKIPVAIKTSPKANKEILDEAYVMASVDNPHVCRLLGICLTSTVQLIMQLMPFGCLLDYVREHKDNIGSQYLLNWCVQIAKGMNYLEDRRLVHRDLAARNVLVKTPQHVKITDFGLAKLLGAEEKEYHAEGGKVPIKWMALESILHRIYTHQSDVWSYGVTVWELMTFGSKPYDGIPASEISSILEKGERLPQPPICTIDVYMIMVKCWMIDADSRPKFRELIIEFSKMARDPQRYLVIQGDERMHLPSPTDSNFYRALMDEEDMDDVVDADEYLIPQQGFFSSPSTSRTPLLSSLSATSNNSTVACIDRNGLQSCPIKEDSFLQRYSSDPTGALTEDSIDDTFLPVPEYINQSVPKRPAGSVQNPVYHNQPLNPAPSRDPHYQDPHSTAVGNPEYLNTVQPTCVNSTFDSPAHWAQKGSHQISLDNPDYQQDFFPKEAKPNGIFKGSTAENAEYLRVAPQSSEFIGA
How it was run: as §1

[6] = biological target: T6, EGFR[T790M/C797S/L858R] (Homo sapiens, UniProt P00533, C797S/L858R/T790M); assay: Inhibition of EGFR[T790M/C797S/L858R] biochemical enzymatic activity (HTRF); conditions: EGFR[T790M/C797S/L858R], 1 mM ATP, 1 h at room temperature, read-out: IC50 @T790M- C797S - L858R
T6 construct: purchased Carna Bio
T6 sequence (P00533 25-1210 T790M/C797S/L858R): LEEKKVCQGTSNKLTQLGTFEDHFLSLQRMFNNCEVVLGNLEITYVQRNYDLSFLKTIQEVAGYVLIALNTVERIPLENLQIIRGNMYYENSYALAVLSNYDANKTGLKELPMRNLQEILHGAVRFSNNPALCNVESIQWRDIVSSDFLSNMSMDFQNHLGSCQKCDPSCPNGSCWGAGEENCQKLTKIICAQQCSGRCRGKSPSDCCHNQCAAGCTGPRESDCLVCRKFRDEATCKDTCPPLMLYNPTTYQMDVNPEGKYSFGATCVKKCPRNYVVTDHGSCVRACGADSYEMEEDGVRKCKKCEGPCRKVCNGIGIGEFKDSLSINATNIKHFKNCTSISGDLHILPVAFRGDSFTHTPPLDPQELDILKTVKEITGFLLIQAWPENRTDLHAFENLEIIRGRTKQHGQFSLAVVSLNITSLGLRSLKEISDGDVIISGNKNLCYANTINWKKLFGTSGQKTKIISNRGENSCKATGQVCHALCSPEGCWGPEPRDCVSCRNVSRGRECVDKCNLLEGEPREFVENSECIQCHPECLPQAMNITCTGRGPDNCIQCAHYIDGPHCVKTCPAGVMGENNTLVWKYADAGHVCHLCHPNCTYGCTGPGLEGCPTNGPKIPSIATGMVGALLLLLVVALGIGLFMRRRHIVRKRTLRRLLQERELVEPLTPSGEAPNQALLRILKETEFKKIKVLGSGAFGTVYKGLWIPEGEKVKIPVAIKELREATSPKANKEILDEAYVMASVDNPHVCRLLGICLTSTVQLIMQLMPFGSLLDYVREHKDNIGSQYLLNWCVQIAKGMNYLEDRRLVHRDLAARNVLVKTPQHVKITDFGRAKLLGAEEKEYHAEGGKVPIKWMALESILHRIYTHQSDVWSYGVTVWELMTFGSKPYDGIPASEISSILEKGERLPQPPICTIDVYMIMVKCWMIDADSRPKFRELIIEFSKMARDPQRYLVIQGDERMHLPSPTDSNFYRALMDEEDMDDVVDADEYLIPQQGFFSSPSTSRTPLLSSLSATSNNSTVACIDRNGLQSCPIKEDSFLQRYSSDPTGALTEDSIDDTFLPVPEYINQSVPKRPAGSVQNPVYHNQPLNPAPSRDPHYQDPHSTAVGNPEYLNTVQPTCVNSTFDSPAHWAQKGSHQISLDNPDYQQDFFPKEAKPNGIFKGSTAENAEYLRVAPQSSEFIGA
How it was run: as §1

[7] = biological target: T7, EGFR[T790M/C797S/d746-750] (Homo sapiens, UniProt P00533, C797S/DEL746-750/T790M); assay: Inhibition of EGFR[T790M/C797S/d746-750] biochemical enzymatic activity (HTRF); conditions: EGFR[T790M/C797S/d746-750], 1 mM ATP, 1 h at room temperature, read-out: IC50 @T790M - C797S - Del19
T7 construct: purchased Carna Bio
T7 sequence (P00533 with tags, fused parts or gaps DEL746-750/T790M/C797S limits assumed): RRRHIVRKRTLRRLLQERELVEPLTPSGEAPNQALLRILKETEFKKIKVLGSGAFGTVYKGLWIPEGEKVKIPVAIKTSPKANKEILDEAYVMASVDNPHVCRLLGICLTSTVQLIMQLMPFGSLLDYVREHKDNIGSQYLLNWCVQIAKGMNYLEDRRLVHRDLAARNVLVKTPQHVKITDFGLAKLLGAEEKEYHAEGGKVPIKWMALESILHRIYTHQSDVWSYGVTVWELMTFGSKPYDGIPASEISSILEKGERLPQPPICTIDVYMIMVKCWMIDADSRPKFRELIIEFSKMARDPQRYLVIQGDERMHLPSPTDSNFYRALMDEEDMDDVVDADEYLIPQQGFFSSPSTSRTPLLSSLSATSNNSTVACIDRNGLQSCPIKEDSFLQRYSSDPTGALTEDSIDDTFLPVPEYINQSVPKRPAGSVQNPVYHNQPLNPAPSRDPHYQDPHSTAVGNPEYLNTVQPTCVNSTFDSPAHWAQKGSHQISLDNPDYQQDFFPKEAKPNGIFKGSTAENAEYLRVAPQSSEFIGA
How it was run: as §1

[8] = biological target: T8, EGFR (d746-750 C797S) (Homo sapiens, UniProt P00533, C797S/DEL746-750); assay: Inhibition of EGFR (d746-750 C797S) biochemical enzymatic activity (HTRF); conditions: EGFR (d746-750 C797S), 1 mM ATP, 1 h at room temperature, read-out: IC50 @Del19-C797S
T8 construct: purchased signalchem
T8 sequence (P00533 with tags, fused parts or gaps DEL746-750/C797S limits assumed): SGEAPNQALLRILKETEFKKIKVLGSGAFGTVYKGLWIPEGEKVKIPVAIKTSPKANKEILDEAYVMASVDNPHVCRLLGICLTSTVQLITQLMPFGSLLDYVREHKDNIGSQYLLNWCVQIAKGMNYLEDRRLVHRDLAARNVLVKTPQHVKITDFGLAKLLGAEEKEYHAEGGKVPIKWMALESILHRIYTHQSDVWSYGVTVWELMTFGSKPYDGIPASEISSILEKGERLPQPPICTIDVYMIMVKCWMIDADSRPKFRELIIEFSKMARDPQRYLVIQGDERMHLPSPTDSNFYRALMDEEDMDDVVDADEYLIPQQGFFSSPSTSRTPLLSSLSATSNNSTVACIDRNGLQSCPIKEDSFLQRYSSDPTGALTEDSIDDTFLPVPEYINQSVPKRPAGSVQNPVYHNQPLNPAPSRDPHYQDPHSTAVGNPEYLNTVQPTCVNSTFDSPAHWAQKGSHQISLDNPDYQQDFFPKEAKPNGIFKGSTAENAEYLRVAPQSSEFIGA
How it was run: as §1

[9] = biological target: T9, EGFR (C797S L858R) (Homo sapiens, UniProt P00533, C797S/L858R); assay: Inhibition of EGFR (C797S L858R) biochemical enzymatic activity (HTRF); conditions: EGFR (C797S L858R), 1 mM ATP, 1 h at room temperature, read-out: IC50 @L858-C797S
T9 construct: purchased signalchem
How it was run: as §1

[10] = tested on: Ba/F3 cells expressing EGFR mutations; assay: Cell proliferation assay, Ba/F3 cells expressing EGFR mutations (CellTiter-Glo, 72 hours); format: cell-based
How it was run: (§2)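 In RPMI1640 medium (PC-9 with 10% FBS), each cell line was seeded at its own density: Ba/F3 5000 and PC-9 500 per well. A compound series was added the next day, with a time-zero viability plate read in parallel. Percent proliferation was subtracted for G0 and referenced to DMSO, and GI50 was derived by curve fitting.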

[11] = tested on: PC-9; assay: Cell proliferation assay, PC-9 cells (CellTiter-Glo, 72 hours); format: cell-based; conditions: PC9 cells, read-out: GI50 PC9
How it was run: as §2

[12] = tested on: A-431; assay: Cell proliferation assay, A-431 cells (GI50, Table 6); format: cell-based
Method: [Worded in the source for another cell line; this cell line is reported under the same test.] Ba/F3 cells expressing EGFR mutations were seeded in 384-well plates at 5000 cells/well in RPMI1640 medium containing […]. PC-9 at 500 cells/well was seeded into 384-well plates in RPMI1640 medium with 10% FBS. After overnight incubation, the assay plates were dosed with compounds at a series of concentrations. Alongside dosing the assay plates, the day 0 plate was processed using CellTiter-Glo® Luminescent Cell Viability Assay (Promega) to measure the number of viable cells (G0). The assay plates were further incubated for 72 hours and the number of viable cells (G3) was measured. The percentage of proliferation was calculated as: […]=100×(G3 value of sample well−G0 value)/(G3 value of DMSO control−G0 value). The concentration of compound producing 50% proliferation inhibition (GI50) was further calculated in best-fit curves using XLFit software. N/A=not available.

[13] = BaF3 cells, EGFR DEL19 - C797S, read-out: GI50 DEL19 - C797S/BaF3
[14] = BaF3 cells, EGFR DEL19 - T790-C797S, read-out: GI50 DEL19 - T790-C797S/BaF3
[15] = BaF3 cells, EGFR L858R - C797S, read-out: GI50 L858R - C797S/BaF3
[16] = BaF3 cells, EGFR L858R - T790-C797S, read-out: GI50 L858R - T790-C797S/BaF3
[17] = BaF3 cells, EGFR L858R - T790M, read-out: GI50 L858R - T790M/BaF3
[18] = BaF3 cells, EGFR L858R, read-out: GI50 L858R/BaF3
[19] = EGFR DEL19 - T790M, read-out: GI50 DEL19 - T790M
[20] = Homo sapiens, A-431, A-431 cells

IC50 [1] [nM]	IC50 [2] [nM]	IC50 [3] [nM]	IC50 [4] [nM]	IC50 [5] [nM]	IC50 [6] [nM]	IC50 [7] [nM]	IC50 [8] [nM]	IC50 [9] [nM]	GI50 [10, 13] [nM]	GI50 [10, 14] [nM]	GI50 [10, 15] [nM]	GI50 [10, 16] [nM]	GI50 [10, 17] [nM]	GI50 [10, 18] [nM]	GI50 [10, 19] [nM]	GI50 [11] [nM]	GI50 [12, 20] [nM]	GI50 ([12]; A-431 cells) [nM]	Compound
489	36	4.8	6.6	5.2	2.3	3	3	9	2	2	7	2	2	12	2	7	437	–	Cc1cc2cc(n1)-c1cnn(C)c1OCCN1CC3CCC(C3)(C1)n1c(nc3ccc(N4CC5CN(C)CC5C4)cc31)NC2=O (single isomer, unassigned) [Example B43B]
> 5000	337	19	34	12	6.4	8.8	12	66	2	2	6	2	2	24	7	22	3690	–	Cc1cc2cc(n1)-c1cnn(C)c1OCCN1CC3CCC(C3)(C1)n1c(nc3ccc(N4CCC(N5CCOCC5)C4)cc31)NC2=O (single isomer, unassigned) [Example B44B1]
4900	267	14	21	8.4	5.5	7	8.5	66	2	2	11	2	2	19	8	22	–	3060	Cc1cc2cc(n1)-c1cnn(C)c1OCCN1CC3CCC(C3)(C1)n1c(nc3ccc(N4CCC(N5CCOCC5)C4)cc31)NC2=O (single isomer, unassigned) [Example B44B2]
> 5000	170	13	18	6.4	4.9	4.3	8.1	50	2	2	12	2	2	15	2	13	929	–	Cc1cc2cc(n1)-c1cnn(C)c1OCCN1CC3CCC(C3)(C1)n1c(nc3ccc(N4CCC(N5CCOCC5)C4)cc31)NC2=O (single isomer, unassigned) [Example B44B]
1020	46	3.8	5.3	2.8	1.4	1.7	2.4	14	2	2	4	2	2	11	2	10	1680	–	Cc1cc2cc(n1)-c1cnn(C)c1OCCN1CC3CCC(C3)(C1)n1c(nc3ccc(N(C)CCCN(C)C)cc31)NC2=O (single isomer, unassigned) [Example B45B]
> 5000	> 5000	> 5000	> 5000	> 5000	> 5000	> 5000	> 5000	> 5000	977	492	2500	198	919	7610	497	3050	–	7830	COCCN(C)c1ccc2nc3n(c2c1)C12CCC(CN(CCOc4c(cnn4C)-c4cc(cc(C)n4)C(=O)N3)C1)C2 (single isomer, unassigned) [Example B46A]
> 5000	377	12	28	7.2	4.7	3.7	7.5	117	2	2	–	2	–	36	2	25	–	1360	COCCN(C)c1ccc2nc3n(c2c1)C12CCC(CN(CCOc4c(cnn4C)-c4cc(cc(C)n4)C(=O)N3)C1)C2 (single isomer, unassigned) [Example B46B]
805	59	3.5	5.8	2.8	1.5	1.9	2.8	14	2	2	9	2	2	11	2	12	378	–	Cc1cc2cc(n1)-c1cnn(C)c1OCCN1CC3CCC(C3)(C1)n1c(nc3ccc(N(C)CCN(C)C)cc31)NC2=O (single isomer, unassigned) [Example B47B]
> 5000	> 5000	> 5000	2240	> 5000	> 5000	> 5000	1020	2920	114	172	426	34	168	846	140	973	–	7000	Cc1cc2cc(n1)-c1cnn(C)c1OCCN1CC3CCC(C3)(C1)n1c(nc3ccc(N4CC(N5CCOCC5)C4)cc31)NC2=O (single isomer, unassigned) [Example B48A]
2970	142	6.7	13	6.9	3	3.4	4.5	44	2	2	6	2	2	13	2	12	–	1370	Cc1cc2cc(n1)-c1cnn(C)c1OCCN1CC3CCC(C3)(C1)n1c(nc3ccc(N4CC(N5CCOCC5)C4)cc31)NC2=O (single isomer, unassigned) [Example B48B]

From patent US20260365670A1, “EGFR INHIBITORS AND USES THEREOF” (DIZAL (JIANGSU) PHARMACEUTICAL CO., LTD., priority 2022, published 2026)
